This is an account of results in US7462605B2, “Phosphoramidate compounds and methods of use” (Celmed Oncology (USA), Inc., priority 2002, dated 2008).

One assay deals with T1, rHuTS (Homo sapiens, UniProt P04818).
T1 construct: His tag (from pET-28a(+)) (N); made in house; host or cells: E. coli BL21 (DE3)/pET-28a(+)
Nature of the assay: Inhibition of rHuTS reactions by Tomudex and 5-FdUMP (initial rates). The assay is classed as biochemical. Conditions: for initial rate of rHuTS reaction with inhibitor / rate as % of No Inhibitor: inhibitor 500 nM. Here is the method:
(§1) Enzyme Assays and Kinetic Measurements. Thymidylate synthase assays were done in 96 well Costar UV transparent plates in a reaction volume of 200 μL, consisting of 40 mM Tris pH 7.5, 25 mM MgCl2, 1 mM EDTA, 25 mM-mercaptoethanol, 125M dUMP, and 65 μM N5, N10-methylene tetrahydrofolate indicated. Tetrahydrofolate stock solutions were prepared by dissolving tetrahydrofolic acid (Sigma) directly into 0.2M Tris pH 7.5, 0.5 M-mercaptoethanol; stock solutions were stored at −80° C. N5, N10-methylene tetrahydrofolate was prepared by adding 12 μl of 3.8% formaldehyde to 1 ml of a 0.65 mM solution of tetrahydrofolate and incubating for 5 minutes at 37° C. N5, N10-methylene tetrahydrofolate was kept on ice and used within 2 hours of preparation.
Conversion of BVdUMP to fluorescent product(s) by thymidylate synthase was measured in 200 μl thymidylate synthase reactions containing 125M BVdUMP in 96 well Dynex Microfluor Black “U” bottom microtiter plates using an excitation wavelength of 340 nm and emission wavelength of 595 nm. Fluorescence was measured with a Tecan Spectrafluor Plus fluorimeter.

In the next assay the test system is MCF7TDX cells. As to the kind of experiment: 96-well combination cytotoxicity assay (crystal violet) with NB1011, MCF7TDX. As to Interaction: key: Syn = synergy; Ant = antagonism; Add = additivity. Type of assay: cell-based, human. Conditions: drug combined with NB1011, MCF7TDX; for CI (average combination index): 96-well crystal violet, 72 hour. Here is the method: Cell lines: Normal human colon epithelial cells (CCD18co) and skin fibroblasts (Det55 1) were purchased from ATCC (Rockville,Md.). MCF7TDX, human breast carcinoma cells resistant to 2 μM Tomudex were obtained from Dr. Patrick Johnston, Queens University, Belfast.
The medium was renewed or the cells were passaged about every three days to maintain optimal growth conditions. Normal cells were passaged a maximum of 15 times to avoid senescence.
Cytotoxicity Studies: 384-well interaction screening assay. 500 cells per well were transferred to a 384-well tissue culture plate (Corning Inc., Corning, N.Y.) and allowed to attach for 24 hours in standard culture conditions. […] 96-well combination cytotoxicity assay. […] Compounds were then applied in duplicate half log serial dilutions. Each compound was tested separately, and mixed together at a single molar ratio approximately equal to the ratio of the individual IC50 values. After an additional 72 hour incubation, cells were washed once with PBS and stained with 0.5% crystal violet in methanol. Plates were washed gently in water to remove unbound stain and allowed to dry overnight. […] Sigmoid curves were fit according to the Hill inhibitory Emax model, and IC50 calculated as the average of three or more separate determinations. […] Briefly, the ICso and the slope parameter (m) for each agent alone were determined from the median effect plot, an x,y plot of log(D) vs log (fa/fu) based on Chou's median effect equation: fa/fu=(D/Dm)^m [Equation 1]
(§2) Only experiments with linear correlation coefficients (r) >0.9 were accepted for analysis. A combination index (CI) was then calculated to assess synergism or antagonism according to the following equation which assumes an independent mechanism of drug action (mutual exclusivity): CI=(D)1/(Dx)1+(D)2/(Dx)2+(D)1(D)2/(Dx)1 (Dx)2 [Equation 2]
(§3) where (D)1 and (D)2 are the concentrations of drug 1 and drug 2 which combined produce x% inhibition, and (Dx)1 and (Dx)2 are the concentrations of each drug which alone produce x% inhibition. CI=1 indicates an additive interaction, CI<1 indicates synergy, and CI>1 indicates antagonism. For each experiment Cl's from several different effect levels and concentrations of a constant molar ratio were averaged.

In assay [1] the test system is CCD18co normal colon epithelial cells. Nature of the assay: 96-well combination cytotoxicity assay (crystal violet) with NB1011, CCD18co. The assay is classed as cell-based, human. Conditions: drug combined with NB1011, CCD18co; for CI (average combination index): 96-well crystal violet, 72 hour. Here is the method: (§4) Cell lines: Normal human colon epithelial cells (CCD18co) and skin fibroblasts (Det55 1) were purchased from ATCC (Rockville,Md.). MCF7TDX, human breast carcinoma cells resistant to 2 μM Tomudex were obtained from Dr. Patrick Johnston, Queens University, Belfast. […] The MCF7TDX and the H630R10 cell lines have been previously described in Drake, J. C. et al. (1996) and Copur, S. et al. (1995) respectively.
(§5) Culture Conditions: All cells were cultured under standard conditions of 37° C., 95% humidified air, 5% CO2 in RPMI 1640 culture medium containing 10% fetal calf serum (Life Technologies) and penicillin/streptomycin/fungizone. […] The medium was renewed or the cells were passaged about every three days to maintain optimal growth conditions. Normal cells were passaged a maximum of 15 times to avoid senescence.
(§6) Cytotoxicity Studies: 384-well interaction screening assay. 500 cells per well were transferred to a 384-well tissue culture plate (Corning Inc., Corning, N.Y.) and allowed to attach for 24 hours in standard culture conditions. Compounds were then applied in a bidirectional (checker board) pattern (Chou, T. C. and Talalay, P. (1984)). Following a 5-day incubation, the redox indicator dye, alamarBlue (AccuMed International, Westlake, Ohio) was added to each well at a 10% v/v ratio, and fluorescence was monitored at 535 excitation, 595 emission. Cytotoxic effect levels and drug interactions were assessed by the combination index method (Chou, T. C. and Talalay, P. (1984) and Bible, K. C. et al. (1997)), described briefly below. 96-well combination cytotoxicity assay. Exponentially growing cells were transferred at a density of 1.0-5.5×10^3 cells per well to a 96-well tissue culture plate and allowed to attach for 24 hours. Compounds were then applied in duplicate half log serial dilutions. Each compound was tested separately, and mixed together at a single molar ratio approximately equal to the ratio of the individual IC50 values. After an additional 72 hour incubation, cells were washed once with PBS and stained with 0.5% crystal violet in methanol. Plates were washed gently in water to remove unbound stain and allowed to dry overnight. […] Sigmoid curves were fit according to the Hill inhibitory Emax model, and IC50 calculated as the average of three or more separate determinations. Where applicable, the combination index for multiple drug effects was calculated according to the median-effect principle (Chou, T. C. and Talalay, P. (1984)) using the CalcuSyn software from Biosoft (Ferguson, Mo.). Briefly, the ICso and the slope parameter (m) for each agent alone were determined from the median effect plot, an x,y plot of log(D) vs log (fa/fu) based on Chou's median effect equation: fa/fu=(D/Dm)^m [Equation 1]
as §2, §3

Assay [2] has as its system Det551 normal skin fibroblasts. Nature of the assay: 96-well combination cytotoxicity assay (crystal violet) with NB1011, Det551. As to Interaction: key: Syn = synergy; Ant = antagonism; Add = additivity. The assay is classed as cell-based, human. Conditions: for Interaction: drug combined with NB1011, Det551; for CI (average combination index): drug combined with NB1011, Det551, 96-well crystal violet, 72 hour. The procedure:
as §4, §5, §6, §2, §3

In the next assay the target is T2, Lactobacillus casei TS (Lacticaseibacillus casei, UniProt P00469).
T2 sequence (P00469 1-316): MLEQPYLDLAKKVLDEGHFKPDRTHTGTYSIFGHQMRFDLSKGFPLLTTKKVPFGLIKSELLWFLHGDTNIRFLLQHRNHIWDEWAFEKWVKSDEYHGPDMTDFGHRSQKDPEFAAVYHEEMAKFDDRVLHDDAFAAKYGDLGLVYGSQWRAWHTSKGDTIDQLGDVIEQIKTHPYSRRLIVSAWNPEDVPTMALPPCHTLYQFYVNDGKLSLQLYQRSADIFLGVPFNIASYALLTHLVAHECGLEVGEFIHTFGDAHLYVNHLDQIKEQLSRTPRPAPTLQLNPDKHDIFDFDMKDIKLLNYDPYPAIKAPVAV
Conditions: cited from earlier work.

Assay [3] concerns the target T3, rHuTS (recombinant human thymidylate synthase) (Homo sapiens, UniProt P04818).
T3 construct: His tag (from pET-28a(+)) (N); made in house; host or cells: E. coli BL21 (DE3)/pET-28a(+)
Nature of the assay: Enzyme kinetics of rHuTS with dUMP and BVdUMP. As to conditions: rHuTS. Type of assay: biochemical. The procedure:
Enzyme Preparation. Cloned human thymidylate synthase plasmid pBCHTS was subcloned into E. coli. BL21 (DE3)/pET-28a(+) (Novagen) using the Ndel ñSacI insertion site, in order to add an amino terminal His tag. Enzyme was expressed in E. coli. by induction with IPTG, and purified by affinity chromatography on a Ni^2+ His Bind metal chelation resin (Novagen). The column Ni^2+ His Bind metal chelation column was washed with 20 mM Tris pH 7.9, 5 mM imidazole, 0.5M NaCl; thymidylate synthase activity was eluted with 20 mM Tris pH 7.9, 60 mM imidazole, 0.5M NaCl.
as §1
Enzyme kinetic constants (Km and Vmax) were determined for the human thymidylate synthase substrates dUMP and BVdUMP using the enzyme assay conditions described above. The initial rates of the enzyme reactions was determined by measuring the increase in A340 for the reaction with dUMP, and decrease in A294 for the reaction with BVdUMP. The catalytic efficiency of the enzyme (Kcat/Km) was calculated from the kinetic constants Km and Vmax.

Setting [4] is: BVdUMP reaction, read-out: Kl (of dUMP).

Each structure is given as a SMILES string.

T1 sequence (P04818 whole entry): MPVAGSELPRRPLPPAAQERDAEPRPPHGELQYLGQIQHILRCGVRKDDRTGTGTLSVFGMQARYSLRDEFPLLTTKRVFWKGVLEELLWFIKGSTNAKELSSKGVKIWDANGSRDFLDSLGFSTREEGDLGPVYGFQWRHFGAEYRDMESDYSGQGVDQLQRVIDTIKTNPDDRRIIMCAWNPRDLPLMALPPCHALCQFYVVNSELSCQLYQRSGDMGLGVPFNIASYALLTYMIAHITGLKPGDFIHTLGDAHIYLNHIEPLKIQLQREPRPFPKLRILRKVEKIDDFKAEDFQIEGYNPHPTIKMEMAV
T3 sequence (P04818 whole entry): as above

Take `O=c1[nH]c(=O)n([C@H]2C[C@H](O)[C@@H](COP(=O)(O)O)O2)cc1F` [5-FdUMP]: the “initial rate of rHuTS reaction with inhibitor” value at rHuTS (BVdUMP + THF) is 44 ± 2 RFU/min; on rHuTS (BVdUMP − THF), 93 ± 13 RFU/min; on rHuTS (dUMP + THF), 290 ± 70 nmol/min. Moreover, the “rate as % of No Inhibitor” value on rHuTS (BVdUMP + THF) is listed as “(40%)”; at rHuTS (BVdUMP − THF), “(129%)”; on rHuTS (dUMP + THF), “(19%)”.

`OCCN(CCO)c1nc(N2CCCCC2)c2nc(N(CCO)CCO)nc(N3CCCCC3)c2n1` [Dipyridamole, dipyridamole]: the values for the Interaction result (with MCF7TDX cells; in assay [1]; in assay [2]) were “Syn”, “Ant” and “Add”, respectively. The figures for the “CI (average combination index)” value (with MCF7TDX cells; in assay [1]; in assay [2]) were 0.51, 1.30 and 1.17, respectively.

As to `COc1cccc2c1C(=O)c1c(O)c3c(c(O)c1C2=O)C[C@@](O)(C(=O)CO)C[C@@H]3O[C@H]1C[C@H](N)[C@H](O)[C@H](C)O1` [Doxorubicin], the Interaction entry in the assay with MCF7TDX cells is “Ant”.

As to `O=C1[O][Pt]2([NH][C@@H]3CCCC[C@H]3[NH]2)[O]C1=O` [Oxaliplatin], in the assay with MCF7TDX cells, the Interaction result is “Ant”.

Consider `Cc1nc2ccc(CN(C)c3ccc(C(=O)N[C@@H](CCC(=O)O)C(=O)O)s3)cc2c(=O)[nH]1` [Tomudex], for which the “initial rate of rHuTS reaction with inhibitor” value turned out to be 67 ± 3 RFU/min at rHuTS (BVdUMP + THF), 34 ± 3 RFU/min at rHuTS (BVdUMP − THF) and 690 ± 40 nmol/min on rHuTS (dUMP + THF).

For the compound `CC[C@]1(O)C[C@@H]2CN(CCc3c([nH]c4ccccc34)[C@@](C(=O)OC)(c3cc4c(cc3OC)N(C)[C@H]3[C@@](O)(C(=O)OC)[C@H](OC(C)=O)[C@]5(CC)C=CCN6CC[C@]43[C@@H]65)C2)C1` [Vinblastine], the Interaction entry with MCF7TDX cells is given as “Ant”; in assay [1] it was “Syn”; in assay [2] it was “Syn”.

The term Km denotes the concentration of substrate that gives half-maximal velocity. Turning to `O=c1ccn([C@H]2C[C@H](O)[C@@H](COP(=O)(O)O)O2)c(=O)[nH]1` [dUMP], the results for the Ki (at Lactobacillus casei TS (setting [4]); in assay [3] (setting [4])) were 2 µM and 17.5 µM, respectively. The Kcat is 6.4 s⁻¹ at Lactobacillus casei TS and 0.2 s⁻¹ in assay [3]. Besides, the Km is 3 µM on Lactobacillus casei TS (substrate) and 7.7 µM in assay [3] (substrate). In assay [3], the “form of inhibition of the BVdUMP reaction (Michaelis-Menton kinetics)” value is on record as “competitive inhibition”. Also, the “initial rate of rHuTS reaction, No Inhibitor” value at rHuTS (dUMP + THF, 30° C., increase in A340) was determined as 1500 ± 20 nmol/min.

Turning to `O=[N+]([O-])c1ccc(CSc2ncnc3c2ncn3C2OC(CO)C(O)C2O)cc1` (stereo not shown) [p-Nitrobenzyl-Thioinosine (NBMPR), p-nitrobenzylthioinosine], the values for the Interaction entry (in the assay with MCF7TDX cells; in assay [1]; in assay [2]) were “Syn”, “Ant” and “Ant”, respectively. Further, the “CI (average combination index)” value in the assay with MCF7TDX cells was determined as 0.57; in assay [1] it was 3.93; in assay [2], 1.43.
